IC50 data for six compounds are collected here from patent publication US12410208B2, “(2-acetamidyl)thio-beta-D-galactopyranoside derivatives” (Idorsia Pharmaceuticals Ltd, priority 2020, dated 2025).

Experiment [1] concerns the target biotinylated human Gal-3 (hGal-3) (Homo sapiens, UniProt P17931). Nature of the experiment: Competitive binding assay: biotinylated hGal-3 binding to microplate-adsorbed asialofetuin (ASF), spectrophotometric. In outline:
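Serially diluted compounds competed with asialofetuin on the plate for biotinylated human Gal-3 during a 3 h incubation at 4° C. Streptavidin-peroxidase with ABTS gave the spectrophotometric signal. IC50 values were averaged over repeat runs.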

The next experiment has as its target human Gal-1 (hGal-1) (Homo sapiens, UniProt P09382). The experiment can be described thus: Competitive binding assay: biotinylated hGal-1 binding to microplate-adsorbed asialofetuin (ASF), spectrophotometric. Particulars: hGal-1 binding to asialofetuin; Table 15; R and S epimers of selected Examples also listed; read-out: IC50 (Galectin-1 inhibition). The method in brief:
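Spectrophotometric competition readout with ABTS after streptavidin-peroxidase (80 ng/mL, 1 h, 4 °C) detection of bound biotinylated hGal-1.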

Setting [2] is: Gal-3 inhibition, Table 7, read-out: IC50.
The mark [3] stands for this setting: Table 13, hGal-3, read-out: IC50 (Gal-3 inhibition).

Read-outs that look alike come from different tables or passages of the source.

human Gal-1 (hGal-1), sequence (P09382 whole entry): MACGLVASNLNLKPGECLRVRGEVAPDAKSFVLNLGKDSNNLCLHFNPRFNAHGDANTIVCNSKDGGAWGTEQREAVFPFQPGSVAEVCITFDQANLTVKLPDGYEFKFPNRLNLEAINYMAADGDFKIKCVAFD
biotinylated human Gal-3 (hGal-3), sequence (P17931 whole entry): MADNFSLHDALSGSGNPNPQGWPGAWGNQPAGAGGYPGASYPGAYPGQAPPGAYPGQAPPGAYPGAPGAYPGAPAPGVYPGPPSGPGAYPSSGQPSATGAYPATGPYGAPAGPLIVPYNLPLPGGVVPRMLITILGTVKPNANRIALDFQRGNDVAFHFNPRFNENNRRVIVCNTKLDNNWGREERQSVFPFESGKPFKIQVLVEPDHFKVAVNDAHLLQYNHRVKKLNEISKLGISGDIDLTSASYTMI

Regarding `Cn1ccc(C(O)C(S[C@@H]2O[C@H](CO)[C@H](O)[C@H](n3cc(-c4cc(F)c(F)c(F)c4)nn3)[C@H]2O)C(=O)N2CCC2)n1` (stereo partly drawn) [Example 2.65.206., 1-(Azetidin-1-yl)-2-(((2S,3R,4S,5R,6R)-3,5-dihydroxy-6-(hydroxymethyl)-4-(4-(3,4,5-trifluorophenyl)-1H-1,2,3-triazol-1-yl)tetrahydro-2H-pyran-2-yl)thio)-3-hydroxy-3-(1-methyl-1H-pyrazol-3-yl)propan-1-one], the IC50 (usually the concentration that inhibits the measured activity by half) is 1040 nM in experiment [1] (setting [2]) and 7290 nM at human Gal-1 (hGal-1).

With `CN(CC1CC1)C(=O)C(S[C@@H]1O[C@H](CO)[C@H](O)[C@H](n2cc(-c3cc(F)c(F)c(F)c3)nn2)[C@H]1O)C(O)c1ccn(C)n1` (stereo partly drawn) [Example 2.65.218., N-(cyclopropylmethyl)-2-(((2S,3R,4S,5R,6R)-3,5-dihydroxy-6-(hydroxymethyl)-4-(4-(3,4,5-trifluorophenyl)-1H-1,2,3-triazol-1-yl)tetrahydro-2H-pyran-2-yl)thio)-3-hydroxy-N-methyl-3-(1-methyl-1H-pyrazol-3-yl)propanamide], the concentration for half-maximal inhibition (IC50) in experiment [1] (setting [2]) turned out to be 690 nM; at human Gal-1 (hGal-1), 3070 nM.

With `CO[C@@H]1[C@@H](n2cc(-c3cc(F)c(F)c(F)c3)nn2)[C@@H](O)[C@@H](CO)O[C@H]1SC(C(=O)N1CCC(F)(F)CC1)C1(O)CCC2(CC2)CC1` (stereo partly drawn) [Example 2.67.226.1., 1-(4,4-Difluoropiperidin-1-yl)-2-(((2S,3R,4S,5R,6R)-5-hydroxy-6-(hydroxymethyl)-3-methoxy-4-(4-(3,4,5-trifluorophenyl)-1H-1,2,3-triazol-1-yl)tetrahydro-2H-pyran-2-yl)thio)-2-(6-hydroxyspiro[2.5]octan-6-yl)ethan-1-one], the concentration for half-maximal inhibition (IC50) in experiment [1] (setting [3]) worked out at 120 nM; at human Gal-1 (hGal-1), 170 nM.

For `CO[C@@H]1[C@@H](n2cc(-c3cc(F)c(F)c(F)c3)nn2)[C@@H](O)[C@@H](CO)O[C@H]1SC(C(=O)N1CCC(F)(F)CC1)C1(O)CCC(C)(C)CC1` (stereo partly drawn) [Example 2.68.226.I., 1-(4,4-Difluoropiperidin-1-yl)-2-(1-hydroxy-4,4-dimethylcyclohexyl)-2-(((2S,3R,4S,5R,6R)-5-hydroxy-6-(hydroxymethyl)-3-methoxy-4-(4-(3,4,5-trifluorophenyl)-1H-1,2,3-triazol-1-yl)tetrahydro-2H-pyran-2-yl)thio)ethan-1-one], the half-maximal inhibitory concentration (IC50) in experiment [1] (setting [3]) amounted to 100 nM; at human Gal-1 (hGal-1), 190 nM.

In the case of `CO[C@@H]1[C@@H](n2cc(-c3cc(F)c(F)c(F)c3)nn2)[C@@H](O)[C@@H](CO)O[C@H]1S[C@@H](C(=O)N1CCC(F)(F)CC1)C1(O)CCC2(CCC2)CC1` [Example 2.69.226R.I., (R)-1-(4,4-Difluoropiperidin-1-yl)-2-(((2S,3R,4S,5R,6R)-5-hydroxy-6-(hydroxymethyl)-3-methoxy-4-(4-(3,4,5-trifluorophenyl)-1H-1,2,3-triazol-1-yl)tetrahydro-2H-pyran-2-yl)thio)-2-(7-hydroxyspiro[3.5]nonan-7-yl)ethan-1-one], the IC50 in experiment [1] (setting [3]) was found to be 570 nM; at human Gal-1 (hGal-1), 1640 nM.

In the case of `CO[C@@H]1[C@@H](n2cc(-c3cc(F)c(F)c(F)c3)nn2)[C@@H](O)[C@@H](CO)O[C@H]1S[C@H](C(=O)N1CCC(F)(F)CC1)C1(O)CCC2(CCC2)CC1` [Example 2.69.226S.I., (S)-1-(4,4-Difluoropiperidin-1-yl)-2-(((2S,3R,4S,5R,6R)-5-hydroxy-6-(hydroxymethyl)-3-methoxy-4-(4-(3,4,5-trifluorophenyl)-1H-1,2,3-triazol-1-yl)tetrahydro-2H-pyran-2-yl)thio)-2-(7-hydroxyspiro[3.5]nonan-7-yl)ethan-1-one], the IC50 in experiment [1] (setting [3]) stood at 120 nM; on human Gal-1 (hGal-1), 270 nM.
